Experimental data: patent US20140039044A1, “Hydroxylated Polymethoxyflavone Compositions” (WLLGEN, INC., priority 2006, published 2014)

Legend:
Format in all cases: cell-based, human
[1] = system: AGS cells; assay: Apoptotic ratio by propidium iodide flow cytometry (AC50); conditions: Homo sapiens; AGS cells; read-out: Apoptosis-inducing AC50
Description: (§1) The human cancer cells (2×10^5) were cultured in 60-mm Petri dishes and incubated for 24 h. After treated with test compounds for 24 h, the cells were then harvested, washed with PBS resuspended in 200 μL of PBS, and fixed in 800 μL of iced 100% ethanol at −20° C. After being left to stand overnight, the cell pellets were collected by centrifugation, resuspended in 1 mL of hypotonic buffer (0.5% Triton X-100 in PBS and 0.5 μg/mL RNase) and incubated at 37° C. for 30 min. Next, 1 mL of propidium iodide solution (50 μg/mL) was added, and the mixture was allowed to stand on ice for 30 min. Fluorescence emitted from the propidium iodide-DNA complex was quantitated after excitation of the fluorescent dye by FACScan cytometry (Becton Dickinson, San Jose, Calif.).
(§2) 1 N PMF and 6 N PMF compositions containing hydroxylated PMFs, prepared as described in Section 8.3 above, 70% PMF OPE and 5,6,7,8,3′,4′-hexamethoxyflavone (nobiletin) were tested for antiproliferative activity and apoptosis-inducing activity in HL-60, AGS and COLO205 cells as described in Section 8.4 above. Antiproliferative and apoptosis-inducing activities were derived as IC50 values and AC50, values, respectively, where AC50 is the concentration required for 50% apoptosis.
(§3) The PMF compounds were assayed in vitro for cell growth inhibition and for their ability to induce apoptosis in various human cancer cells, including HL-60, AGS, COLO 205, and HT-29 cells, using methods described in Section 8.4 above. Antiproliferative (IC50) and apoptosis-inducing activity (AC50) of PMFs in the HL-60, AGS, COLO 205, and HT-29 cells are reported in Table 9, where *P<0.05, **P<0.01 and ***P<0.001 indicate statistically significant differences from the control group.

[2] = system: COLO205 cells; assay: as above; conditions: Homo sapiens, COLO 205; COLO205 cells; read-out: Apoptosis-inducing AC50
Description: as §1, §2, §3

[3] = system: HL-60 cells; assay: as above; conditions: Homo sapiens; HL-60 cells; read-out: Apoptosis-inducing AC50
Description: as §1, §2, §3

[4] = system: HT-29 cells; assay: as above; conditions: Homo sapiens, read-out: Apoptosis-inducing AC50
Description: as §1, §3

[5] = system: HL-60 cells; assay: Cell cycle distribution by flow cytometry; conditions: 24 h; for Cell Cycle Distribution G0/G1 / Cell Cycle Distribution G2/M / Cell Cycle Distribution S: Table 10
Description: as §1
The effects of the hydrolyzed PMF-enriched compositions, nobiletin and 70% PMF OPE on cell cycle distribution were studied, following the procedures described in Section 8.4. Results for cell cycle distribution in HL-60 cells, COLO205 cells and AGS cells are provided in Table 5, Table 6 and Table 7, respectively. […] In HL-60 cells, G2/M arrest predominated in cells treated with 6N PMF concentrations ≧5 μM and with 1N PMF concentrations ≧25 μM.
(§4) Compounds A-K were evaluated in terms of their effects in arresting cell cycle progression by observing cell cycle phase distribution in cells treated with the compounds. Cells were treated with 5, 10, 25, 50, and 100 μM of one of compound A-K or DMSO (control) for 24 h and subjected to flow cytometric analysis after staining their DNA, as described above.

[6] = system: HT-29 cells; assay: Cell cycle distribution by flow cytometry; conditions: for Cell Cycle Distribution G0/G1 / Cell Cycle Distribution G2/M / Cell Cycle Distribution S: 24 h
Description: as §1, §4
Similar cell cycle phase distribution studies were performed in AGS, COLO205, and HT-29 cells in response to individual PMFs, with results reported in Tables 11, 12 and 13, respectively.

`COc1cc(-c2cc(=O)c3c(OC)c(OC)c(OC)c(OC)c3o2)cc(OC)c1OC` [F, 5,6,7,8,3′,4′,5′-heptamethoxyflavone, reference compound] showed an AC50 [1] of over 100 µM, an AC50 [2] of over 100 µM and an AC50 [3] of over 100 µM. For the same compound, the AC50 [4] was over 100 µM, the “Cell Cycle Distribution G0/G1” value ([5]; 5 μM) was 42.11 ± 0.37 and the “Cell Cycle Distribution G2/M” value ([5]; 5 μM) was 10.56 ± 1.16. For the same compound, the “Cell Cycle Distribution S” value ([5]; 5 μM) was 47.34 ± 1.53, the “Cell Cycle Distribution G0/G1” value ([5]; 10 μM) was 48.35 ± 1.83 and the “Cell Cycle Distribution G2/M” value ([5]; 10 μM) was 10.59 ± 1.46. The “Cell Cycle Distribution S” value ([5]; 10 μM) was 41.07 ± 0.37, the “Cell Cycle Distribution G0/G1” value ([5]; 25 μM) was 57.82 ± 1.51 and the “Cell Cycle Distribution G2/M” value ([5]; 25 μM) was 7.28 ± 1.54. For the same compound, the “Cell Cycle Distribution S” value ([5]; 25 μM) was 34.90 ± 0.03, the “Cell Cycle Distribution G0/G1” value ([5]; 50 μM) was 60.39 ± 0.23 and the “Cell Cycle Distribution G2/M” value ([5]; 50 μM) was 8.44 ± 0.54. The “Cell Cycle Distribution S” value ([5]; 50 μM) was 31.18 ± 0.30, the “Cell Cycle Distribution G0/G1” value ([5]; 100 μM) was 63.66 ± 2.33 and the “Cell Cycle Distribution G2/M” value ([5]; 100 μM) was 4.92 ± 0.46. The “Cell Cycle Distribution S” value ([5]; 100 μM) was 31.43 ± 1.87, the “Cell cycle arrest, in words” value ([5]; 25-100 μM) was “significant G1 arrest” and the “Cell Cycle Distribution G0/G1” value ([6]; 5 μM) was 70.24 ± 0.52. The “Cell Cycle Distribution G2/M” value ([6]; 5 μM) was 7.11 ± 0.17, the “Cell Cycle Distribution S” value ([6]; 5 μM) was 22.66 ± 0.35 and the “Cell Cycle Distribution G0/G1” value ([6]; 10 μM) was 76.34 ± 0.35. For the same compound, the “Cell Cycle Distribution G2/M” value ([6]; 10 μM) was 7.06 ± 0.42, the “Cell Cycle Distribution S” value ([6]; 10 μM) was 16.61 ± 0.06 and the “Cell Cycle Distribution G0/G1” value ([6]; 25 μM) was 82.19 ± 0.16. For the same compound, the “Cell Cycle Distribution G2/M” value ([6]; 25 μM) was 6.83 ± 0.61, the “Cell Cycle Distribution S” value ([6]; 25 μM) was 10.98 ± 0.45 and the “Cell Cycle Distribution G0/G1” value ([6]; 50 μM) was 88.64 ± 0.27. The “Cell Cycle Distribution G2/M” value ([6]; 50 μM) was 6.25 ± 0.58, the “Cell Cycle Distribution S” value ([6]; 50 μM) was 5.11 ± 0.31 and the “Cell Cycle Distribution G0/G1” value ([6]; 100 μM) was 89.85 ± 0.13. The “Cell Cycle Distribution G2/M” value ([6]; 100 μM) was 6.07 ± 0.06, the “Cell Cycle Distribution S” value ([6]; 100 μM) was 4.10 ± 0.06 and the “Cell cycle arrest, in words” value ([6]; 5-100 μM, 24 h exposure) was “significant accumulation of cells in G1 phase”.
